Legend:
[1] = test system: CYP enzymes in rat liver microsomes (RLM); assay: Inhibition of 20-HETE production in rat liver microsomes (RLM); type: biochemical
Experimental: (§1) Experimental principle: The inhibitory activity of 20-HETE production is evaluated by testing the inhibitory effects of the compound on human liver microsomes (HLM), rat liver microsomes (RLM), mouse liver microsomes (MLM), or […] CYP4 subtype enzymes (CYP4F2). This assay employs HLM, RLM, or MLM along with recombinant CYP4F2 (rCYP4F2) and recombinant CYP4A11 (rCYP4A11), which are […] CYP4 subtype enzymes, to detect the effects of the test compound at different concentrations on the metabolic rate of enzyme-specific substrates, to determine the inhibitory effects of the test compound on CYP enzymes in HLM, RLM, or MLM.
(§2) Experimental methods: Dissolve the test compound in DMSO, and subsequently dilute it with an acetonitrile and DMSO mixture (3:1). Add 2 μl of varying concentrations of the test compound and 100 μl of potassium phosphate buffer containing either liver microsomes or recombinant enzymes to a 96-well plate. After mixing well, transfer 30 μl to another well (in duplicate), add 15 μl of 400 μM substrate solution, and mix well again. Preheat at 37° C. for 10 minutes, and then add 15 μl of 6 mM NADPH and incubate at 37° C. for 25 minutes. After 25 minutes, add 160 μl of acetonitrile solution (containing 0.1 μg/ml internal standard) to stop the reaction. Mix well, centrifuge at 3500 g for 15 minutes, and then analyze the supernatant using LC-MS/MS.
(§3) Plot the compound concentration on the x-axis and the inhibition rate on the y-axis to draw the curve. Use GraphPad Prism 5 software to fit the curve and calculate the IC50. The formula is Y=Bottom+(Top−Bottom)/(1+10^((Log IC50−X)×HillSlope)). X represents the logarithmic concentration of the inhibitor, and Y represents the relative enzyme activity at a given inhibitor concentration (relative to the condition without the inhibitor).
(§4) Calculate the inhibition percentages at concentrations of 1000 nM, 500 nM, or 100 nM as well as the half-maximal inhibitory concentration (IC50) of the test compound from the above experiment.

[2] = test system: CYP enzymes in human liver microsomes (HLM); assay: Inhibition of 20-HETE production in human liver microsomes (HLM); type: biochemical
Experimental: as §1, §2, §3, §4

| SMILES | RLM (% inh @ 500 nM) [1] | HLM (% inh @ 500 nM) [2] | IC50 [2] | IC50 [1] |
| --- | --- | --- | --- | --- |
| O=C(NC1CCN(c2ccc(-c3cn[nH]c3)cc2)CC1)C1CCCC1 [Compound 69, N-(1-(4-(1H-pyrazol-4-yl)phenyl)piperidin-4-yl)cyclopentanecarboxamide] | 43.82% | 76.97% | – | – |
| O=C1CCCN1C1CCN(c2ccc(-c3cn[nH]c3)cc2)CC1 [Compound 73, 1-(1-(4-(1H-pyrazol-4-yl)phenyl)piperidin-4-yl) pyrrolidin-2-one] | 29.56% | 65.78% | – | – |
| O=C1CCCN1CC1CCN(c2ccc(-c3cc[nH]n3)cc2F)CC1 [Compound 76, 1-((1-(2-fluoro-4-(1H-pyrazol-3-yl)phenyl)piperidin-4-yl)methyl)pyrrolidin-2-one] | 40.73% | 80.70% | – | – |
| O=C1CCCN1CC1CCN(c2ccc(-c3cc[nH]n3)c(F)c2F)CC1 [Compound 77, 1-((1-(2,3-difluoro-4-(1H-pyrazol-3-yl)phenyl)piperidin-4-yl)methyl)pyrrolidin-2-one] | 62.98% | 86.12% | – | – |
| O=C(N1CCCCC1)N1CCN(c2ccc(-c3cn[nH]c3)c(F)c2F)CC1 [Compound 88, (4-(2,3-difluoro-4-(1H-pyrazol-4-yl)phenyl)piperazin-1-yl)(piperidin-1-yl) methanone] | 68.94% | 78.05% | – | – |
| O=C(NC1CCCC1)N1CCN(c2ccc(-c3cn[nH]c3)c(F)c2F)CC1 [Compound 89, N-cyclopentyl-4-(2,3-difluoro-4-(1H-pyrazol-4-yl)phenyl)piperazine-1-carboxamide] | 55.76% | 94.11% | – | – |
| O=C(NCC1CCCC1)N1CCN(c2ccc(-c3cn[nH]c3)c(F)c2F)CC1 [Compound 92, N-(cyclopentylmethyl)-4-(2,3-difluoro-4-(1H-pyrazol-4-yl)phenyl)piperazine-1-carboxamide] | 77.48% | 94.83% | 26.4 nM | – |
| O=C(NCc1ccccc1)N1CCN(c2ccc(-c3cn[nH]c3)c(F)c2F)CC1 [Compound 94, N-benzyl-4-(2,3-difluoro-4-(1H-pyrazol-4-yl)phenyl)piperazine-1-carboxamide] | 73.06% | 92.79% | – | 148 nM |
| O=C(NCc1ccccc1)C1CCN(c2ccc(-c3cn[nH]c3)c(F)c2F)CC1 [Compound 95, N-benzyl-1-(2,3-difluoro-4-(1H-pyrazol-4-yl)phenyl)piperidine-4-carboxamide] | 61.73% | 94.96% | 19.4 nM | 341 nM |
| O=C(C1CCCCC1)N1CCC(c2ccc(-c3cn[nH]c3)c(F)c2F)CC1 [Compound 97, cyclohexyl(4-(2,3-difluoro-4-(1H-pyrazol-4-yl)phenyl)piperidin-1-yl) methanone] | – | 95.80% | 25.6 nM | 25.4 nM |
| O=C(C1CCCC1)N1CCC(c2c(F)cc(-c3cn[nH]c3)cc2F)CC1 [Compound 99, cyclopentyl(4-(2,6-difluoro-4-(1H-pyrazol-4-yl)phenyl)piperidin-1-yl) methanone] | 74.05% | 96.13% | – | – |
| O=C(C1CCC(F)(F)CC1)N1CCC(c2ccc(-c3cn[nH]c3)c(F)c2F)CC1 [Compound 101, (4-(2,3-difluoro-4-(1H-pyrazol-4-yl)phenyl)piperidin-1-yl)(4,4-difluorocyclohexyl) methanone] | 69.34% | 78.37% | – | – |
| C[C@H]1CN(C(=O)N2CCCC2)CCN1c1ccc(-c2cn[nH]c2)c(F)c1F [Compound 102, (S)-(4-(2,3-difluoro-4-(1H-pyrazol-4-yl)phenyl)-3-methylpiperazin-1-yl)(pyrrolidin-1-yl) methanone] | 76.10% | 84.23% | – | – |
| C[C@@H]1CN(C(=O)N2CCCC2)CCN1c1ccc(-c2cn[nH]c2)c(F)c1F [Compound 104, (R)-(4-(2,3-difluoro-4-(1H-pyrazol-4-yl)phenyl)-3-methylpiperazin-1-yl)(pyrrolidin-1-yl) methanone] | 73.19% | 78.18% | – | – |
| O=C1CCCCC1C(=O)N1CCC(c2ccc(-c3cn[nH]c3)c(F)c2F)CC1 (centres unmarked) [Compound 109, 2-(4-(2,3-difluoro-4-(1H-pyrazol-4-yl)phenyl)piperidine-1-carbonyl)cyclohexane-1-one] | 68.22% | 74.67% | – | – |
| O=C(Cc1ccccc1)N1CCC(c2ccc(-c3cn[nH]c3)c(F)c2F)CC1 [Compound 111, 1-(4-(2,3-difluoro-4-(1H-pyrazol-4-yl)phenyl)piperidin-1-yl)-2-phenylethan-1-one] | 84.99% | 82.17% | – | – |
| CCCCCC1CCC(C(=O)N2CCC(c3ccc(-c4cn[nH]c4)c(F)c3F)CC2)CC1 (centres unmarked) [Compound 112, (4-(2,3-difluoro-4-(1H-pyrazol-4-yl)phenyl)piperidin-1-yl)((1s,4r)-4-pentylcyclohexyl) methanone] | 71.58% | 70.73% | – | – |
| C#CCCCCCC(=O)NCC1CCN(c2ccc(-c3cn[nH]c3)cc2)CC1 [Compound 114, N-((1-(4-(1H-pyrazol-4-yl)phenyl)piperidin-4-yl)methyl)oct-7-ynamide] | 54.89% | 85.59% | – | – |
| C=CCCCCCC(=O)NCC1CCN(c2ccc(-c3cn[nH]c3)cc2)CC1 [Compound 115, N-((1-(4-(1H-pyrazol-4-yl)phenyl)piperidin-4-yl)methyl)oct-7-enamide] | – | 85.21% | 20.8 nM | 26.2 nM |
| O=S(=O)(C1CCCCC1)N1CCC(c2ccc(-c3cn[nH]c3)cc2F)CC1 [Compound 119, 1-(cyclohexylsulfonyl)-4-(2-fluoro-4-(1H-pyrazol-4-yl)phenyl)piperidine] | 75.79% | 87.83% | – | 116 nM |
| O=S(=O)(c1ccc(F)cc1)N1CCC(c2ccc(-c3cn[nH]c3)cc2F)CC1 [Compound 120, 4-(2-fluoro-4-(1H-pyrazol-4-yl)phenyl)-1-((4-fluorophenyl)sulfonyl)piperidine] | 71.20% | 93.40% | 16.1 nM | 107 nM |
| O=C1CCCN1CC1C2CN(c3ccc(-c4cn[nH]c4)cc3)CC12 (centres unmarked) [Compound 125, 1-((3-(4-(1H-pyrazol-4-yl)phenyl)-3-azabicyclo[3.1.0]hexan-6-yl)methyl)pyrrolidin-2-one] | 34.82% | 94.93% | – | – |
| O=C(N1CCCC1)N1CC2CCC(C1)N2c1ccc(-c2cn[nH]c2)c(F)c1F [Compound 128, (8-(2,3-difluoro-4-(1H-pyrazol-4-yl)phenyl)-3,8-diazabicyclo[3.2.1]octan-3-yl)(pyrrolidin-1-yl) methanone] | 62.11% | 89.99% | – | – |
| O=C(N1CCCC1)N1CCN(c2ccc(-c3cn[nH]c3)cc2F)CC1 [Compound 129, (4-(2-fluoro-4-(1H-pyrazol-4-yl)phenyl)piperazin-1-yl)(pyrrolidin-1-yl) methanone] | 74.89% | 89.94% | – | – |
| O=C(C1CCCC1)N1CCC(c2ccc(-c3cn[nH]c3)cc2F)CC1 [Compound 138, cyclopentyl(4-(2-fluoro-4-(1H-pyrazol-4-yl)phenyl)piperidin-1-yl) methanone] | 77.16% | 92.84% | – | – |

— US20250034116A1, “1,4-DIHETEROCYCLIC SUBSTITUTED AROMATIC RING OR AROMATIC HETEROCYCLIC COMPOUND AND USE THEREOF” (BeBetter Med Inc., priority 2022, published 2025)
